In patent US12168646B2, “Aryl hydrocarbon receptor agonists and uses thereof” (NEXYS THERAPEUTICS, INC., priority 2022, dated 2024):
Where two headings read alike, the source gives them in different places.

How the values were obtained:
[1] = Stability in human feces (azo reduction in feces homogenate); assay type: in vitro ADME; details: pH 6.8, 37° C., under nitrogen
Procedure: Biological Data 2: Stability in Human Feces
Accordingly, selected azo compounds of the invention were exposed to human feces under conditions suitable to promote azo reduction.
The human feces from two donors were homogenized in isotonic phosphate buffered saline (pH 6.8) with a ratio of 1:10 (w/v). The tubes were sealed using sealing film. Test article was dissolved in isotonic phosphate buffer (pH 6.8) to form a working solution of 20 μM (if the solubility allows). An aliquot of working solution (50 μL) was added to the human feces homogenate (50 μL) for each time point (0, 1, 2, 4, 6 and 24 h) in duplicate and placed under nitrogen for about 1 minute in order to exhaust air, and then incubated at 37° C. After incubation at each pre-set time point, 1000 μL acetonitrile containing internal standard w as added to each tube to quench reaction. Samples were vortexed and centrifuged at 3700 rpm for 10 min and the supernatant was transferred for analysis (and diluted where necessary). The concentrations of test article and its metabolite (example 3) in the supernatants were determined using LC-MS/MS method. Sulfasalazine was used as a positive control. All incubations were performed in duplicate.

[2] = target: T1, AhR (Homo sapiens, UniProt P35869); experiment: HT29 AhR Reporter Assay (HT29-Lucia AhR cells, QUANTI-Luc luminescence); assay type: cell-based; details: for EC50: 18-24 h, EC50 = concentration to reach half of maximum efficacy of reference compound VAF347; for Emax: read-out: HT29 AhR % efficacy
T1 construct: HT29-Lucia AhR cells were purchased from Invivogen (cat #ht21-ahr); host or cells: HT29-Lucia AhR cells
T1 sequence (P35869 11-848): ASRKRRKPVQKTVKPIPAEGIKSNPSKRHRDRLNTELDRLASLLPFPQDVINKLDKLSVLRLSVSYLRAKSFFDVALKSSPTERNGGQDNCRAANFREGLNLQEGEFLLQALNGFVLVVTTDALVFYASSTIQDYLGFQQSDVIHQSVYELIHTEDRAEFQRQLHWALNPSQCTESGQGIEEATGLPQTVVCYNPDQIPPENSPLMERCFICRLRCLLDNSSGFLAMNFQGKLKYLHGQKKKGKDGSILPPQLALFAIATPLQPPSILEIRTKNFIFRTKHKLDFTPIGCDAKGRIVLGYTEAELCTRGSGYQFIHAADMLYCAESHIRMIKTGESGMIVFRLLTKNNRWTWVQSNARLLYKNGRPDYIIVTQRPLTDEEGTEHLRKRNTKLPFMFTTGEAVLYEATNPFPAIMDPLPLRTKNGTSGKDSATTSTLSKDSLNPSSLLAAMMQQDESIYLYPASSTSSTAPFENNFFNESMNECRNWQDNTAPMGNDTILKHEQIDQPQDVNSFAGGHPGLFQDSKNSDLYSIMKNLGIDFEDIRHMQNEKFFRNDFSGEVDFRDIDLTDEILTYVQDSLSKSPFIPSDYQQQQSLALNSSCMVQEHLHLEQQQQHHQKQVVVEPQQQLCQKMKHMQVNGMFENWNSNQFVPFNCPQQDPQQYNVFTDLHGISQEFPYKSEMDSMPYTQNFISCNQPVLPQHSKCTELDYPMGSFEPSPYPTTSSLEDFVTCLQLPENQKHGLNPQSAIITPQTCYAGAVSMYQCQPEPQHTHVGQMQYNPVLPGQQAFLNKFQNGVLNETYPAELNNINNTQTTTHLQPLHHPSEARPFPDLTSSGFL
Procedure: Biological Data 1: HT29 AhR Reporter Assay HT29-Lucia AhR cells were purchased from Invivogen (cat #ht21-ahr). […] The cell suspension was removed from growth medium and rinsed gently with pre-warmed PBS (10 mL). Pre-warmed Trypsin (1 mL) was added, and cells were held at 30° C. for about 5 min and then detached by pipette. The dissociated cell clumps were gently pipetted up and down. The cells were resuspended in pre-warmed detection medium (DMEM, 10% FBS (30 min at 56° C.), 100 U/ml penicillin, 100 μg/ml streptomycin, and test article or vehicle) and counted. A cell suspension of ˜500,000 cells/mL in Detection medium was prepared. […] Samples (20 μL/well) were pipetted into a 96-well white (opaque), and QUANTI-Luc™ (50 μL/well) was added. The plate was gently tapped and then read in a luminometer (0.1 s reading time).

[3] = HT29-Lucia AhR cells, % efficacy = 100%*(TA-BG)/(Ref-BG), Ref = VAF347

| Compound | % of parent remaining after incubation for 6 h [1] [%] | EC50 ([2]; HT29-Lucia AhR cells) [µM] | Emax [2, 3] [%] | Emax [2] [%] |
| --- | --- | --- | --- | --- |
| N[C@H](Cc1cc(/N=N/c2ccccc2-c2ccnc(Nc3ccc(C(F)(F)F)cc3)n2)ccc1O)C(=O)O [Example 49, (R,E)-2-amino-3-(2-hydroxy-5-((2-(2-((4-(trifluoromethyl)phenyl)amino)pyrimidin-4-yl)phenyl)diazenyl)phenyl)propanoic acid] | 33 |  |  |  |
| CS(=O)(=O)c1ccc(N)c(-c2ccnc(Nc3ccc(C(F)(F)F)cc3)n2)c1 [Example 13, 4-(2-amino-5-(methylsulfonyl)phenyl)-N-(4-(trifluoromethyl)phenyl)pyrimidin-2-amine] |  | > 30 |  | 7 |
| Nc1cccc(C(=O)O)c1-c1ccnc(Nc2ccc(C(F)(F)F)cc2)n1 [Example 9] |  | 2.62 |  | 89 |
| Nc1ccc(-c2ccnc(Nc3ccc(C(F)(F)F)cc3)n2)cc1 [Example 1, 4-(4-aminophenyl)-N-(4-(trifluoromethyl)phenyl)pyrimidin-2-amine] |  | > 30 |  | 16 |
| Nc1ccc(Nc2nccc(-c3ccccc3O)n2)cc1 [Example 25, 2-(2-((4-aminophenyl)amino)pyrimidin-4-yl)phenol] |  | 6.92 | 21 |  |
| Nc1ccccc1-c1ccnc(Nc2ccc(C(F)(F)F)cc2)n1 [Example 3, 4-(2-aminophenyl)-N-(4-(trifluoromethyl)phenyl)pyrimidin-2-amine] |  | 1.33 |  | 165 |
| Nc1ccc(O)c(-c2ccnc(Nc3ccc(C(F)(F)F)cc3)n2)c1 [Example 11, 4-amino-2-(2-((4-(trifluoromethyl)phenyl)amino)pyrimidin-4-yl)phenol] |  | > 30 |  | -17 |
| Nc1cccc(-c2ccnc(Nc3ccc(C(=O)O)cc3)n2)c1 [Example 18, 4-((4-(3-aminophenyl)pyrimidin-2-yl)amino)benzoic acid] |  | > 30 | 10 |  |
| COc1cc(/N=N/c2ccccc2-c2ccnc(Nc3ccc(C(F)(F)F)cc3)n2)ccc1C(=O)O [Example 42, (E)-2-methoxy-4-((2-(2-((4-(trifluoromethyl)phenyl)amino)pyrimidin-4-yl)phenyl)diazenyl)benzoic acid] | 98 |  |  |  |
| O=C(O)c1ccc(/N=N/c2ccccc2-c2ccnc(Nc3ccc(C(F)(F)F)cc3)n2)c(O)c1 [Example 40, (E)-3-hydroxy-4-((2-(2-((4-(trifluoromethyl)phenyl)amino)pyrimidin-4-yl)phenyl)diazenyl)benzoic acid] | 22 |  |  |  |
| Nc1cc(Cl)cc(-c2ccnc(Nc3ccc(C(F)(F)F)cc3)n2)c1 [Example 6, 4-(3-amino-5-chlorophenyl)-N-(4-(trifluoromethyl)phenyl)pyrimidin-2-amine] |  | > 30 | 15 |  |
| Oc1ccc(/N=N/c2ccccc2-c2ccnc(Nc3ccc(C(F)(F)F)cc3)n2)cc1 [Example 33, (E)-4-((2-(2-((4-(trifluoromethyl)phenyl)amino)pyrimidin-4-yl)phenyl)diazenyl)phenol] | 59 |  |  |  |
| Nc1ccc(Cl)cc1-c1ccnc(Nc2ccc(C(F)(F)F)cc2)n1 [Example 4, 4-(2-amino-5-chlorophenyl)-N-(4-(trifluoromethyl)phenyl)pyrimidin-2-amine] |  | > 30 |  | 18 |
| Nc1cccc(-c2ccnc(Nc3cccc(C(=O)O)c3)n2)c1 [Example 20, 3-((4-(3-aminophenyl)pyrimidin-2-yl)amino)benzoic acid] |  | > 30 | 13 |  |
| Nc1ccc(O)cc1-c1ccnc(Nc2ccc(C(F)(F)F)cc2)n1 [Example 12, 4-amino-3-(2-((4-(trifluoromethyl)phenyl)amino)pyrimidin-4-yl)phenol] |  | > 30 |  | 17 |
| Nc1ccc(-c2ccnc(Nc3ccc(C(F)(F)F)cc3)n2)cc1Cl [Example 5, 4-(4-amino-3-chlorophenyl)-N-(4-(trifluoromethyl)phenyl)pyrimidin-2-amine] |  | 20 | 46 |  |
| CS(=O)(=O)c1ccc(N)cc1-c1ccnc(Nc2ccc(C(F)(F)F)cc2)n1 [Example 14, 4-(5-amino-2-(methylsulfonyl)phenyl)-N-(4-(trifluoromethyl)phenyl)pyrimidin-2-amine] |  | 16.9 |  | 51 |

Further lines, with some results ahead:

| % of parent remaining after incubation for 6 h [1] [%] | EC50 ([2]; HT29-Lucia AhR cells) [µM] | Emax [2, 3] [%] | Compound | Emax [2] [%] |
| --- | --- | --- | --- | --- |
| 74 |  |  | COc1ccc(/N=N/c2ccccc2-c2ccnc(Nc3ccc(C(F)(F)F)cc3)n2)cc1C(=O)O [Example 43, (E)-2-methoxy-5-((2-(2-((4-(trifluoromethyl)phenyl)amino)pyrimidin-4-yl)phenyl)diazenyl)benzoic acid] |  |
| 95 |  |  | O=C(O)c1cccc(/N=N/c2ccccc2-c2ccnc(Nc3ccc(C(F)(F)F)cc3)n2)c1 [Example 34, (E)-3-((2-(2-((4-(trifluoromethyl)phenyl)amino)pyrimidin-4-yl)phenyl)diazenyl)benzoic acid] |  |
|  | 0.026 | 100 | FC(F)(F)c1ccc(Nc2nccc(-c3cccc(Cl)c3)n2)cc1 [VAF347, reference compound] |  |
|  | > 30 | 29 | Nc1ccc(C(=O)O)c(-c2ccnc(Nc3ccc(C(F)(F)F)cc3)n2)c1 [Example 7, 4-amino-2-(2-((4-(trifluoromethyl)phenyl)amino)pyrimidin-4-yl)benzoic acid] |  |
|  | > 30 | 13 | Nc1ccc(-c2ccnc(Nc3ccc(C(F)(F)F)cc3)n2)c(C(=O)O)c1 [Example 8, 5-amino-2-(2-((4-(trifluoromethyl)phenyl)amino)pyrimidin-4-yl)benzoic acid] |  |
|  | 9.24 | 69 | Nc1ccc(CC(=O)O)c(-c2ccnc(Nc3ccc(C(F)(F)F)cc3)n2)c1 [Example 10, 2-(4-amino-2-(2-((4-(trifluoromethyl)phenyl)amino)pyrimidin-4-yl)phenyl)acetic acid] |  |
|  | > 30 | 5 | Nc1cc(Nc2nccc(-c3cccc(C(=O)O)c3)n2)ccc1C(F)(F)F [Example 24, 3-(2-((3-amino-4-(trifluoromethyl)phenyl)amino)pyrimidin-4-yl)benzoic acid] |  |
| 10 |  |  | O=S(=O)(O)c1cc(/N=N/c2ccccc2-c2ccnc(Nc3ccc(C(F)(F)F)cc3)n2)ccc1O [Example 50, (E)-2-hydroxy-5-((2-(2-((4-(trifluoromethyl)phenyl)amino)pyrimidin-4-yl)phenyl)diazenyl)benzenesulfonic acid] |  |
|  | > 30 | 27 | Nc1cc(C(F)(F)F)ccc1Nc1nccc(-c2cccc(Cl)c2)n1 [Example 21, N^1-(4-(3-chlorophenyl)pyrimidin-2-yl)-4-(trifluoromethyl)benzene-1,2-diamine] |  |
|  | > 30 | 141 | Nc1cccc(Nc2nccc(-c3ccccc3O)n2)c1 [Example 26, 2-(2-((3-aminophenyl)amino)pyrimidin-4-yl)phenol] |  |
|  | 0.018 | 124 | Nc1cc(Nc2nccc(-c3cccc(Cl)c3)n2)ccc1C(F)(F)F [Example 22, N^1-(4-(3-chlorophenyl)pyrimidin-2-yl)-4-(trifluoromethyl)benzene-1,3-diamine] |  |
|  | > 30 | 33 | Nc1cc(Nc2nccc(-c3ccccc3C(=O)O)n2)ccc1C(F)(F)F [Example 23, 2-(2-((3-amino-4-(trifluoromethyl)phenyl)amino)pyrimidin-4-yl)benzoic acid] |  |
